Assay results: US10273279B2, “Protease activated receptor-1 (PAR1) derived cytoprotective polypeptides and related methods” (THE SCRIPPS RESEARCH INSTITUTE, priority 2011, dated 2019)
Substitutions are numbered along the chain they refer to. Entries after “also recorded” stand apart in the source; their conditions may differ.

Experiments:
SEAP-PAR1 [1] = assay: SEAP-PAR1 cleavage reporter on transfected HEK-293 cells (SEAP release); format: cell-based, human; conditions: in the absence of EPCR
From the text: (§1) To facilitate analysis of APC-mediated PAR-1 activation, we created a full-length PAR-1 construct linked at the N-terminus to an alkaline phosphatase reporter group (SEAP). Selection of stable cell lines expressing both endothelial protein C receptor (EPCR) (wt or E86A) and SEAP-PAR1 allowed for a reliable and reproducible analysis of EPCR-dependent PAR-1 activation by APC. Mass-spec analysis of cleavage fragments generated by APC of a synthetic PAR-1 N-terminal tail peptide (TR33-62) identified both Arg^41 and Arg^46 as potential cleavage sites for APC proteolysis, as noted above. […] R41Q-SEAP-PAR1 was cleaved by APC in the presence of EPCR. This surprising result was also obtained for R41A-SEAP PAR1.
(§2) 2009; 113:5970-5978. SEAP-PAR1, either in the presence or absence of wt-EPCR, were transfected into HEK-293 cells to obtain stable cells expressing SEAP-PAR1 or wt-EPCR/SEAP-PAR1. Mutations in SEAP-PAR1 were introduced using the Quickchange method (Agilent). Cells were grown in 96-wells plates to confluency in Dulbeco's modified Eagle media (DMEM): Ham's F-12 (Invitrogen) supplemented with penicillin-streptomycin-glutamine (PSG) (Gibco) and 10% fetal bovine serum (Omega) in a humidified atmosphere at 37° C. and 5% CO2 Cells were washed with Hank's balanced salt solution (HBSS; Invitrogen) supplemented with 1.3 mM CaCl2, 0.6 mM MgCl2 and 0.1% endotoxin free BSA (Calbiochem) and incubated with APC. After 60 min, SEAP release was determined using 1-step PNPP (Pierce). Values were corrected for background activity derived from the same cells incubated in the absence of APC and expressed as a percentage of total SEAP available on the cell membrane.

SEAP-PAR1 [2] = target: T1, SEAP-PAR1 (Homo sapiens, UniProt P25116, R41A); assay: as above; format: cell-based; conditions: in the absence of EPCR
T1 construct: we created a full-length PAR-1 construct linked at the N-terminus to an alkaline phosphatase reporter group (SEAP); expressed in transfected cells
T1 sequence (P25116 22-425 R41A): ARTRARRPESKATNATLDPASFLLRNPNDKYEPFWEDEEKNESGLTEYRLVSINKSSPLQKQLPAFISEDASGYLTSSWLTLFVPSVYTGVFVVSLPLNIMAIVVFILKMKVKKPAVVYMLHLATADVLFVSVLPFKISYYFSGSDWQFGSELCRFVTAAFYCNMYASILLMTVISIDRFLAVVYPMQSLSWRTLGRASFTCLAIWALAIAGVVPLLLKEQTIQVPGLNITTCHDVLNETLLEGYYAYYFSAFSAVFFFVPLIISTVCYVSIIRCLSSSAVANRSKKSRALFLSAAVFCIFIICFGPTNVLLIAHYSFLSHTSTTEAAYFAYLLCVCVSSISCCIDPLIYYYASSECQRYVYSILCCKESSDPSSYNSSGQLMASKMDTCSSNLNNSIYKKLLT
From the text: as §1, §2

SEAP-PAR1 [3] = target: T2, SEAP-PAR1 (Homo sapiens, UniProt P25116, R41Q/R46Q); assay: as above; format: cell-based; conditions: cells with wt-EPCR
T2 construct: we created a full-length PAR-1 construct linked at the N-terminus to an alkaline phosphatase reporter group (SEAP); expressed in transfected cells
T2 sequence (P25116 22-425 R41Q/R46Q): T1 sequence (P25116 22-425 R41A) with A20Q, R25Q
From the text: as §1, §2

[4] = test system: Rac1 in endothelial EA.hy.926 cells; assay: Rac1 activation (GST-PAK1 pull down of active GTP-Rac1); format: cell-based, human; conditions: peptides 50 μM, 30 or 180 min
Experimental: Some assays employed in this study were performed as follow. Rac1 activation. The pGEXTK-PAK1 70-117 construct encoding a GST fusion to p21-activated kinase (PAK-1)-binding domain (PBD) was kindly made available by Dr. J Chernoff (Addgene plasmid 12217). GST-PAK1 was purified from transformed BL21 (DE3) Escherichia coli using B-Per lysis buffer (Pierce) with lysozyme, DNAse 1 and Halt EDTA-free protease inhibitor cocktail (Pierce) on Glutathione-agarose according to the manufacturer's recommendation. Pull down of active Rac1 was performed as described in Pellegrin et al., Curr. Protoc. Cell Biol. 2008; Chapter 14:Unit 14.8. Briefly, endothelial EA.hy.926 cells (5*10^6 per plate) were grown in 100-mm dishes for 48 hr and serum starved overnight before addition of peptides (50 μM) for 30 or 180 min. Lysates (2 mg) were mixed with GST-PAK1 Glutathione-agarose (150 μg) and after washing active GTP-Rac1 was eluted from GST-PAK1 Glutathione-agarose by boiling in reducing SDS sample buffer (LI-COR). Active GTP-Rac1 was resolved on 12% SDS PAGE, transferred to Immobilon-FL PVDF membrane, and immunoblotted with a mouse anti-Rac1 antibody (BD Bioscience) and IRDye 800CW donkey anti-mouse secondary antibodies (LI-COR). Immunoblots were scanned on the Odyssey Imager (LI-COR). Quantification of integrated fluorescence intensity (K counts) was done using Odyssey Application Software v3.0 (LI-COR).

SEAP-PAR1 [5] = target: T3, SEAP-PAR1 (Homo sapiens, UniProt P25116, R41Q); assay: SEAP-PAR1 cleavage reporter on transfected HEK-293 cells (SEAP release); format: cell-based; conditions: in the presence of EPCR
T3 construct: we created a full-length PAR-1 construct linked at the N-terminus to an alkaline phosphatase reporter group (SEAP); expressed in transfected cells
T3 sequence (P25116 22-425 R41Q): T1 sequence (P25116 22-425 R41A) with A20Q
From the text: as §1, §2

“APC: Activated Protein C, serine protease with anticoagulant and cytoprotective cell signaling activities” was tested, and the “cleavage of wt-SEAP-PAR1 and R46Q-SEAP-PAR1” value (SEAP-PAR1 [1]) was “did cleave”, the “cleavage of R41A-SEAP-PAR1” value (SEAP-PAR1 [2]) was “did not cleave” and the “cleavage of R41Q/R46Q-SEAP-PAR1” value (SEAP-PAR1 [3]) was “eliminated PAR-1 cleavage; also recorded: negligible”.

With “NPNDKYEPFWEDEEKNESGL (listed as Homo sapiens) [TR47-66]” the “activation of Rac1” value [4] was “induced APC-like activation of Rac1”.

With thrombin the “cleavage of R41Q-SEAP-PAR1” value (SEAP-PAR1 [5]) was “did not show any cleavage”.
